Measurements: patent publication US20070167408A1, “NOVEL ALKYL PHOSPHOLIPID DERIVATIVES WITH REDUCED CYTOTOXICITY AND USES THEREOF” (ZENTARIS GmbH, priority 2005, published 2007)
Where two headings read alike, the source gives them in different places.

Columns and labels:
Format in all cases: cell-based
[1] = tested on: KB/HeLa (human cervix carcinoma) cells; assay: XTT cytotoxicity assay, KB/HeLa cells; details: read-out: KB/HELA [IC50 (μM)]
Method: (§1) Cytotoxicity of selected compounds of the invention against different mammalian cell lines was assessed as follows.
(§2) Human tumor cell lines KB/HeLa (ATCC CCL17, human cervix carcinoma), PC3 (ATCC CRL1435, human prostate carcinoma) and RKOp21 (human colon adenocarcinoma; Schmidt et al., Oncogene 2000, 19: 2423-2429) cells were used in an automated XTT screening assay for the assessment of cytotoxicity.
(§3) The XTT assay quantifies cellular metabolic activity which correlates with cell viability and cell number. Test compounds (selected compounds of the invention and known substances as controls) are dissolved in culture medium at 600 μM and added to the tumor cells in 10 different concentrations in a semi-logarithmic fashion starting from 100 μM as highest concentration.
(§4) 48 h later cellular metabolic activity of cells treated with test compounds is quantified by measurement of the absorbance at 490 nm (conversion of XTT dye) in comparison to untreated control cells (100% viability).
(§5) KB/HeLa and PC3 cells were cultivated in RPMI 1640 medium (Gibco, Cat. No. 42401-018) supplemented with 10% heat inactivated fetal calf serum (FCS, Biochrom AG, Cat. No. S0115), 2 mM L-glutamine (Gibco, Cat. No. 25030-24) and 2% Penicillin-Streptomycin (PenStrep, Gibco, Cat. No. 15140-122). RKOp21 cells were grown in DMEM+GlutaMAXTM-I medium (Gibco, Cat. No. 61965-026) supplemented with 10% heat inactivated fetal calf serum (FCS, Biochrom AG, Cat. No. S0115), 2 mM L-glutamine (Gibco, Cat. No. 25030-24), 2% Penicillin-Streptomycin (PenStrep, Gibco, Cat. No. 15140-122) and 1% 1M HEPES (Gibco, Cat. No. 15630-056). All cells were cultured at 37° C. in 5% CO2 humidified air.
(§6) On the first day of the experiment cells were harvested from exponential phase cultures by trypsination, counted and plated into 96 well flat-bottom micro titer plates depending on the cell line as listed below:
(§7) After a 24 h recovery to allow the cells to resume exponential growth, the test compounds were diluted immediately prior to use and transferred in 25 μl volume to the wells.
(§8) Following 2 days of continuous drug exposure 50 μl of freshly prepared XTT-PMS solution {2% 0.386 mg/ml PMS (N-Methyl Dibenzopyrazine Methylsulphate; Sigma, Cat. No. P9625) in PBS+98% 1 mg/ml XTT (Sodium 2,3-bis(2-methoxy-4-nitro-5-sulfophenyl)-5-[(phenylamino)carbonyl]-2H-Tetrazolium; Serva, Cat. No. 38450) in RPMI 1640 medium without phenol red} was added to the wells. To measure the proportion of living cells, the cells were incubated for 3 h with XTT-PMS reagent at 37° C., 5% CO2, humidified atmosphere allowing to form the formazan salt. The amount of soluble formazan salt produced by cellular reduction of XTT is quantified by measuring the absorbance at 490 nm using the Biomek® 2000 ELISA plate reader. %-inhibition (cytotoxicity) of each test compound was calculated in relation to untreated control cells. Inhibition curves were generated and IC50 values calculated by using GraphPad Prism.

[2] = tested on: RKOp21 (human colon adenocarcinoma) cells; assay: XTT cytotoxicity assay, RKOp21 cells; details: read-out: RKOp21 [IC50 (μM)]
Method: as §1, §2, §3
(§9) In a second set of experiments employing PC3, RKOp21 and SKOV-3 (ATCC HTB-77, human ovary adenocarcinoma) cells, test and reference compounds were dissolved in 70% Ethanol/30% H2O in a stock concentration of 10 mM and diluted in cell culture medium to yield either 31.6 μM (PC3 and RKOp21) or 100 μM (SKOV-3) final concentration.
as §4, §5, §6, §7, §8

[3] = tested on: PC3 (human prostate carcinoma) cells; assay: XTT cytotoxicity assay, PC3 cells; details: read-out: PC3 [IC50 (μM)]
Method: as §1, §2, §3, §9, §4, §5, §6, §7, §8

[4] = Homo sapiens, HeLa, XTT, 48 h exposure
[5] = Homo sapiens, XTT, 48 h exposure
[6] = Homo sapiens, PC-3, XTT, 48 h exposure

Row | SMILES | IC50 [1, 4] [µM] | IC50 [2, 5] [µM] | IC50 [3, 6] [µM] | further results
1 | CC(C)CCCC(C)C1CCC2C3CCC4CC(OP(=O)([O-])OCC[N+](C)(C)C)CCC4(C)C3CCC12C (stereo not drawn) [Compound 41] | > 100 | > 100 | > 100 | 
2 | CC(C)CCCC(C)C1CCC2C3CC=C4CC(OP(=O)([O-])OCC[N+](C)(C)C)CCC4(C)C3CCC12C (stereo not drawn) [Compound 46] | > 100 | > 100 | > 100 | 
3 | CC(C)CCCC(C)C1CCC2C3=CC=C4CC(OP(=O)([O-])OCC[N+](C)(C)C)CCC4(C)C3CCC21C (stereo not drawn) [Compound 48] | > 100 | > 100 | > 100 | 
4 | CCCCC/C=C\C/C=C\CCCCCCCCOP(=O)([O-])OCC[N+](C)(C)C [Compound 55] | > 100 | > 100 | > 100 | 
5 | C[C@H](CCC(=O)O)[C@H]1CCC2[C@@H]3CC[C@@H]4C[C@H](OP(=O)([O-])OCC[N+](C)(C)C)CC[C@]4(C)[C@H]3CC[C@@]21C (stereo partly drawn) [Compound 59] | > 100 | > 100 | > 100 | 
6 | CCCCCCCCCCCCCCCCOP(=O)(O)OCCN1CCOCC1 [Compound 60] | > 100 | > 100 | > 100 | 
7 | CCCCCCCCCCCCCCCCOP(=O)(O)OCCN1CCCC1 [Compound 63] | > 100 | > 100 | > 100 | 
8 | CCCCCCCCCCCCCCCCOP(=O)([O-])OC1C[N+]2(C)CCC1CC2 (stereo not drawn) [Compound 76] | 11.3 | 68.8 | 25 | 
9 | CCCCCCCC/C=C\CCCCCCCCOP(=O)([O-])OCC[N+](C)(C)CC [Compound 82] | 37.7 | 20.5 | 45.6 | 
10 | CCCCCCCCCCCCCCCCCCCCOP(=O)([O-])OC1CCC[N+](C)(C)CC1 (stereo not drawn) [Compound 86] | 75.6 | > 100 | > 100 | 
11 | CCCCCCCC/C=C\CCCCCCCCOP(=O)([O-])OCC[N+]1(C)CCCC1 [Compound 91] | > 100 | > 100 | 86.8 | 
12 | CCCCCCCC/C=C\CCCCCCCCOP(=O)([O-])OCC[N+]1(C)CCCCC1 [Compound 97] | > 100 | 89.4 | 49.4 | 
13 | CCCCCCCCCCOCCOCCOP(=O)([O-])OCC[N+](C)(C)C [Compound 123] | 39.1 | 76.6 | 21.8 | 
14 | CCCCCCCC/C=C\CCCCCCCCCCCCOP(=O)([O-])OCC[N+]1(C)CCC(O)CC1 (stereo not drawn) [Compound 133] | > 100 | > 100 | 81.6 | 
15 | CCCCCCCCC#CCCCCCCCCOP(=O)([O-])OCC[N+]1(C)CCCCC1 [Compound 145] | > 100 | > 100 | > 100 | 
16 | CCCCCCCCCCCCCCCCCCOP(=O)([O-])OCc1cccc[n+]1C [Compound 147] | > 100 | > 100 | > 100 | 

Row | SMILES | IC50 [1, 4] [µM] | IC50 [2, 5] [µM] | IC50 [3, 6] [µM] | further results
17 | CCCCCCCCCCCCCCCCCCOP(=O)([O-])OCC1CC[N+](C)(C)CC1 [Compound 152] | 32.3 | > 100 | 23.9 | 
18 | CCCCCCCCCCCCCCCCOP(=O)([O-])OCC1CC[N+](C)(C)CC1 [Compound 153] | 38.2 | > 100 | 39.8 | 
19 | CCCCCCCCCCCCCCCCCCOP(=O)([O-])OCCN1CC[N+](C)(C)CC1 [Compound 154] | 12.6 | 77.4 | 18.2 | 
20 | CCCCCCCC/C=C\CCCCCCCCCCCCOP(=O)([O-])OCC[As+](CC)(CC)CC [Compound 159] |  |  |  | IC50 ([1]; XTT, 48 h exposure): > 100 µM; IC50 ([2]; XTT, 48 h exposure): 21 µM; IC50 ([3]; XTT, 48 h exposure): 37.7 µM
21 | CCCCCCCC/C=C\CCCCCCCCCCCCOP(=O)([O-])OCCC1=C(C)[N+](C)=CC1 [Compound 172] | > 100 | 65.5 | 29.8 | 
22 | CCCCCCC1CCC(CCOP(=O)([O-])OCC[N+]2(C)CCCCC2)CC1 (stereo not drawn) [Compound 180] | > 100 | > 100 | > 100 | 
23 | CCCCCCCC/C=C\CCCCCCCCCCCCOP(=O)([O-])OC1CCC[N+](C)(CCc2ccccc2)CC1 (stereo not drawn) [Compound 185] | > 100 | > 100 | 30.4 | 
24 | CCCCCCCCCCCCCCCCOP(=O)([O-])OCC[n+]1cccc(C(=O)OCC)c1 [Compound 190] | 100 | > 100 | 73.3 | 
25 | CCCCCCCCCCCCCCCCOP(=O)([O-])OC1CC[N+](CC)(CC)CC1 [Compound 200] | 66.4 | > 100 | 34.5 | 
26 | CCCCCCCC/C=C\CCCCCCCCCCCCOP(=O)([O-])OC1CC[N+](CC)(CC)CC1 [Compound 203] | > 100 | > 100 | 63.1 | 
27 | CCC(C)CC(C)CC(C)CC(C)COP(=O)([O-])OCC[N+](C)(C)C (stereo not drawn) [Compound 235] | > 100 | > 100 | > 100 | 
28 | CCCCCCCC/C=C\CCCCCCCCOCCOCCOP(=O)([O-])OC1CC[N+](C)(C)CC1 [Compound 256] | > 100 | > 100 | 82 | 
29 | CCC(C)CC(C)CC(C)CC(C)COP(=O)([O-])OC1CC[N+](C)(C)CC1 (stereo not drawn) [Compound 258] | > 100 | > 100 | > 100 | 
30 | C#CC[N+]1(C)CCC(OP(=O)([O-])OCCCCCCCCCCCCCCCC)CC1 (stereo not drawn) [Compound 262] | 10.1 | > 100 | 31.2 | 
31 | CCCCCCCC/C=C\CCCCCCCCCCCCOP(=O)([O-])OCC[N+](CC)(CC)CC [Compound 275] | > 100 | 44.4 | 69.2 | 
32 | CCCCCCCC/C=C\CCCCCCCC(=O)OCC(COP(=O)([O-])OCC[As+](C)(C)C)OC(=O)CCCCCCC/C=C\CCCCCCCC (stereo not drawn) [Compound 311] |  |  |  | IC50 ([1]; Homo sapiens, HeLa, 48 h): > 100 µM; IC50 ([2]; Homo sapiens, 48 h): > 100 µM; IC50 ([3]; Homo sapiens, PC-3, 48 h): > 100 µM
